pEC50, pIC50: −log10 of the molar value. Converted amounts (≈) assume the structure as drawn. The source made the active and inactive calls. The calls are words filed in the database; no cut-off is given here.
Legend:
[1] = test system: HCC827; assay: cells; format: functional, cell-based; settings: Homo sapiens;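 further: antiproliferative effect on HCC827 cells carrying EGFR delE746_A750 mutation, 96 h exposure, viability read by CellTiter-Glo luminescence on day 5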
Description: Antiproliferative activity against human HCC827 cells harboring EGFR-delE746_A750 mutant incubated for 96 hrs measured on day 5 by CellTiterGlo assay

[2] = in vitro; settings: human, liver microsomes
[3] = Metabolic stability in human plasma at 5 uM incubated for 1 hr by LC-MS method; format: ADME, cell-free; settings: read-out: Stability
[4] = target: Epidermal growth factor receptor (Homo sapiens, UniProt P00533, L858R)
[5] = Fraction unbound in mouse 100% plasma at 5 uM incubated for 6 hrs by LC-MS method; format: ADME, cell-free
[6] = test system: A549; assay: cells; format: ADME, cell-based; settings: Homo sapiens;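 further: antiproliferative effect in KRAS G12S mutant A549 cells after 96 h exposure, viability read by CellTiter-Glo luminescence on day 5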
Description: Antiproliferative activity against human A549 cells harboring KRAS-G12S mutant incubated for 96 hrs measured on day 5 by CellTiterGlo assay

[7] = Apparent permeability across apical to basolateral side in human Caco2 cells at 5 uM incubated for 2 hrs; format: ADME, cell-based, Caco-2; settings: Caco-2
[8] = test system: A-431; assay: cells; format: ADME, cell-based; settings: Homo sapiens;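 further: antiproliferative effect on cells bearing wild-type EGFR, 96 h exposure, viability read by CellTiter-Glo luminescence on day 5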
Description: Antiproliferative activity against human A431 cells expressing wild type EGFR incubated for 96 hrs measured on day 5 by CellTiterGlo assay

[9] = test system: Epidermal growth factor receptor (Homo sapiens), P00533 [L858R,T790M]; assay: Covalent binding affinity to human recombinant GST-tagged EGFR L858R/T790M double mutant expressed in baculovirus expression system by mass spectrometry
[10] = Permeability of the compound at 500 uM incubated for 20 hrs by PAMPA; format: physicochemical
[11] = Metabolic stability in mouse plasma at 5 uM incubated for 1 hr by LC-MS method; format: ADME, cell-free; settings: read-out: Stability
[12] = in vitro; settings: mouse, liver microsomes
[13] = test system: NCI-H1975; assay: cells; format: functional, cell-based; settings: Homo sapiens
[14] = target: Epidermal growth factor receptor (Homo sapiens, UniProt P00533)
[15] = Apparent permeability across basolateral to apical side in human Caco2 cells at 5 uM incubated for 2 hrs; format: ADME, cell-based, Caco-2; settings: Caco-2
[16] = target: Epidermal growth factor receptor (Homo sapiens, UniProt P00533, L858R/T790M)
[17] = Kinetic solubility in Hepes buffer at 500 uM at pH 7.4 after 90 mins; format: physicochemical; settings: read-out: Kinetic_solubility
[18] = in vitro; settings: human, Caco-2
Description: Efflux ratio of apparent permeability from basolateral side to apical side over apical side to basolateral side over in human Caco2 cells at 5 uM incubated for 2 hrs

[19] = AUC in RjOrl:SWISS (CD1) mouse plasma at 20 mg/kg, ip; format: ADME, organism-based
[20] = test system: Mus musculus; assay: Toxicity in RjOrl:SWISS (CD1) mouse at 20 mg/kg, ip; format: organism-based; settings: in vivo
[21] = Half life in RjOrl:SWISS (CD1) mouse plasma at 2 mg/kg, iv; format: ADME, organism-based
[22] = Oral bioavailability in RjOrl:SWISS (CD1) mouse plasma at 20 mg/kg administered via gavage; format: ADME, organism-based
[23] = test system: Mus musculus; assay: Free Cmax in RjOrl:SWISS (CD1) mouse plasma at 20 mg/kg, ip; format: ADME, organism-based; settings: in vivo
[24] = Ratio of total Cmax in RjOrl:SWISS (CD1) mouse plasma at 20 mg/kg, ip to EC50 for antiproliferative activity against human NCI-H1975 cells harboring EGFR-L858R/T790M double mutant
[25] = Total Cmax in RjOrl:SWISS (CD1) mouse plasma at 20 mg/kg, ip; format: ADME, organism-based; design: dose 20 mg/kg, route intraperitoneal
[26] = test system: Mus musculus; assay: Toxicity in RjOrl:SWISS (CD1) mouse at 20 mg/kg, po administered via gavage; format: organism-based; settings: in vivo
[27] = Ratio of free Cmax in RjOrl:SWISS (CD1) mouse plasma at 20 mg/kg, ip to EC50 for antiproliferative activity against human NCI-H1975 cells harboring EGFR-L858R/T790M double mutant
[28] = test system: Mus musculus; assay: Time duration during which total plasma concentration stays above in vitro EC50 for human NCI-H1975 cells harboring EGFR-L858R/T790M double mutant in RjOrl:SWISS (CD1) mouse at 20 mg/kg, ip
[29] = Cmax in RjOrl:SWISS (CD1) mouse plasma at 20 mg/kg, po administered via gavage; format: ADME, organism-based; design: dose 20 mg/kg, route oral
[30] = Clearance in RjOrl:SWISS (CD1) mouse plasma at 2 mg/kg, iv; format: ADME, organism-based
[31] = AUC in RjOrl:SWISS (CD1) mouse plasma at 2 mg/kg, iv; format: ADME, organism-based
[32] = test system: Mus musculus; assay: Bioavailability in RjOrl:SWISS (CD1) mouse plasma at 20 mg/kg, ip; format: ADME, organism-based; settings: in vivo
[33] = AUC in RjOrl:SWISS (CD1) mouse plasma at 20 mg/kg, po administered via gavage; format: ADME, organism-based
[34] = Volume of distribution at steady state in RjOrl:SWISS (CD1) mouse plasma at 2 mg/kg, iv; format: ADME, organism-based; settings: read-out: Vdss
[35] = test system: Mus musculus; assay: Toxicity in RjOrl:SWISS (CD1) mouse at 2 mg/kg, iv; format: organism-based; settings: in vivo
[36] = Initial concentration in RjOrl:SWISS (CD1) mouse plasma at 2 mg/kg, iv; format: ADME, organism-based
[37] = test system: Mus musculus; assay: Time duration during which free plasma concentration stays above in vitro EC50 for human NCI-H1975 cells harboring EGFR-L858R/T790M double mutant in RjOrl:SWISS (CD1) mouse at 20 mg/kg, ip
[38] = Half life in RjOrl:SWISS (CD1) mouse plasma at 20 mg/kg, po administered via gavage; format: ADME, organism-based
[39] = Half life in RjOrl:SWISS (CD1) mouse plasma at 20 mg/kg, ip; format: ADME, organism-based

SMILES: C=CC(=O)N1CCC[C@@H](n2nc(-c3ccc4ccccc4c3)c3c(N)ncnc32)C1
- pEC50 [1]: > 7.85
- microsomal CLint at 50 min, 3 µM [2]: 770 µL/min/mg
- remaining at 1 h, 5 µM [3]: 94%
- pIC50 [4]: 9.00
- fraction unbound at 6 h, 5 µM [5]: 0.02
- pEC50 [6]: 4.94
- Papp A→B at 2 h, 5 µM [7]: 0.51 ×10⁻⁶ cm/s
- pEC50 [8]: 5.44
- Activity [9]: Active
- permeability [10]: 73%
- remaining at 1 h, 5 µM [11]: 86%
- microsomal CLint at 50 min, 3 µM [12]: 2310 µL/min/mg
- pEC50 [13]: 6.85
- pIC50 [14]: 7.70
- Papp B→A at 2 h, 5 µM [15]: 0.13 ×10⁻⁶ cm/s
- pIC50 [16]: > 9.00
- solubility kinetic at 1.5 h, 500 µM [17]: 248 µM (≈ 98.8 µg/mL)
- efflux ratio at 2 h, 5 µM [18]: 0.3

SMILES: C=CC(=O)N1CCC[C@@H](n2nc(-c3cn(C)c4ccccc34)c3c(N)ncnc32)C1
- AUC [19]: 1890 ng·h/mL
- Activity [20]: Non-Toxic
- half-life [21]: 36 min
- pEC50 [1]: 7.05
- microsomal CLint at 50 min, 3 µM [2]: 462 µL/min/mg
- remaining at 1 h, 5 µM [3]: 95%
- pIC50 [4]: 8.70
- bioavailability [22]: 2.4%
- fraction unbound at 6 h, 5 µM [5]: 0.12
- fCmax [23]: 1.36 µM
- Ratio [24]: 50
- Cmax [25]: 4540 ng/mL
- pEC50 [6]: 4.63
- Papp A→B at 2 h, 5 µM [7]: 0.3 ×10⁻⁶ cm/s
- Activity [26]: Non-Toxic
- pEC50 [8]: 5.17
- Ratio [27]: 6
- Time [28]: 75 min
- Cmax [29]: 38 ng/mL
- clearance [30]: 277 mL/min/kg
- AUC [31]: 121 ng·h/mL
- F [32]: 156%
- AUC [33]: 29 ng·h/mL
- Activity [9]: Active
- permeability [10]: 66%
- remaining at 1 h, 5 µM [11]: 100%
- Vd [34]: 12.4 L/kg
- microsomal CLint at 50 min, 3 µM [12]: 1980 µL/min/mg
- pEC50 [13]: 6.64
- Activity [35]: Non-Toxic
- pIC50 [14]: 7.40
- C0 [36]: 138 ng/mL
- Papp B→A at 2 h, 5 µM [15]: 0.29 ×10⁻⁶ cm/s
- pIC50 [16]: 8.52
- solubility kinetic at 1.5 h, 500 µM [17]: 364 µM (≈ 146 µg/mL)
- Time [37]: 30 min
- half-life [38]: 35.4 min
- efflux ratio at 2 h, 5 µM [18]: 1
- half-life [39]: 14.4 min

Reference: ChEMBL document CHEMBL4038351, “Structure-Guided Development of Covalent and Mutant-Selective Pyrazolopyrimidines to Target T790M Drug Resistance in Epidermal Growth Factor Receptor” (J Med Chem, 2017)
